Holding throughout (assay type): biochemical
One assay deals with T1, human Src enzyme (Homo sapiens, UniProt P12931).
T1 construct: purchased Carna Biosciences, Inc. 08-173
The assay can be described thus: Src enzyme inhibitory activity (time-resolved fluorometry, biotinylated peptide phosphorylation). The note with it: read-out: SRC_IC50. Summed up:
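Compounds were tested for blocking tyrosine phosphorylation of a biotinylated peptide substrate by recombinant human Src. Phosphorylated product was quantified by time-resolved fluorometry using europium cryptate and XL665 conjugates, and IC50 was calculated against the compound-free control.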

In another assay the target is T2, human Yes1 enzyme (Homo sapiens, UniProt P07947).
T2 construct: made in house
The assay can be described thus: Yes1 enzyme inhibitory activity (time-resolved fluorometry, biotinylated peptide phosphorylation). The note with it: read-out: YES_IC50. Summed up: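 Inhibition was expressed against a compound-free control to give IC50, using TR-FRET read-out (Eu-cryptate anti-pTyr antibody, streptavidin-XL665).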

The target of the next assay is T3, human Lck enzyme (Homo sapiens, UniProt P06239).
T3 construct: purchased Carna Biosciences, Inc. 08-170
The assay can be described thus: Lck enzyme inhibitory activity (time-resolved fluorometry, biotinylated peptide phosphorylation). The following applies: read-out: LCK_IC50. The procedure, abridged: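 Readout pairs a europium cryptate-labelled anti-phosphotyrosine antibody with XL665-streptavidin, measured by time-resolved fluorescence. IC50 derived from percent inhibition against untreated controls.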

[1] abbreviates: biotinylated peptide phosphorylation.

Like-named read-outs stand apart in the source and are kept apart here.

T1 sequence (P12931 whole entry): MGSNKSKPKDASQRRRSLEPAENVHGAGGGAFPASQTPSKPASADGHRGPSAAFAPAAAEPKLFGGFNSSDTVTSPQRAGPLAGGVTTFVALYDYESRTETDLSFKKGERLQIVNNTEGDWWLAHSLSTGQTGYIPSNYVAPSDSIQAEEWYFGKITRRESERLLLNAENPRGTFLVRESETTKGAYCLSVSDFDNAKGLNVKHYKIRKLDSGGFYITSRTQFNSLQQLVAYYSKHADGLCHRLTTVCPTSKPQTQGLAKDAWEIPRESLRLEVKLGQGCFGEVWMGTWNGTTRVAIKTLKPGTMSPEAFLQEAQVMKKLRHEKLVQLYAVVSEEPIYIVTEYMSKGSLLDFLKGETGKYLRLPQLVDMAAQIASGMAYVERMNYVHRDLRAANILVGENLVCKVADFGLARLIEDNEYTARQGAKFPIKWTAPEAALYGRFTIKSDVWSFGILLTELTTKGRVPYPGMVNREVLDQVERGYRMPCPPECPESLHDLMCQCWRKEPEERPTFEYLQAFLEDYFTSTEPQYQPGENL
T3 sequence (P06239 whole entry): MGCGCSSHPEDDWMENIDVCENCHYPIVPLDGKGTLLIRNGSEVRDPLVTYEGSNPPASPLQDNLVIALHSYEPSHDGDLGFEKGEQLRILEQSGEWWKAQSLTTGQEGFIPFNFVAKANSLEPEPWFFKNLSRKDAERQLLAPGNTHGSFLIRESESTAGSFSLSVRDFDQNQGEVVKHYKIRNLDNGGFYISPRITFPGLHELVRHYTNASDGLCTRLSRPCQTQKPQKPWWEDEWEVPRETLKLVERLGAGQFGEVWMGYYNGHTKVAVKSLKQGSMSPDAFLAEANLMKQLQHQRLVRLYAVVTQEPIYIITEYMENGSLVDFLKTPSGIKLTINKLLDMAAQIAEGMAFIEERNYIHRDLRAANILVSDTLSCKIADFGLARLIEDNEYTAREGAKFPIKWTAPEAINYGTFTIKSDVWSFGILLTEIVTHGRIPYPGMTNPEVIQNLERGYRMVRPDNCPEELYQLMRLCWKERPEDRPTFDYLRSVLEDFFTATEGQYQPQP
T2 sequence (P07947 whole entry): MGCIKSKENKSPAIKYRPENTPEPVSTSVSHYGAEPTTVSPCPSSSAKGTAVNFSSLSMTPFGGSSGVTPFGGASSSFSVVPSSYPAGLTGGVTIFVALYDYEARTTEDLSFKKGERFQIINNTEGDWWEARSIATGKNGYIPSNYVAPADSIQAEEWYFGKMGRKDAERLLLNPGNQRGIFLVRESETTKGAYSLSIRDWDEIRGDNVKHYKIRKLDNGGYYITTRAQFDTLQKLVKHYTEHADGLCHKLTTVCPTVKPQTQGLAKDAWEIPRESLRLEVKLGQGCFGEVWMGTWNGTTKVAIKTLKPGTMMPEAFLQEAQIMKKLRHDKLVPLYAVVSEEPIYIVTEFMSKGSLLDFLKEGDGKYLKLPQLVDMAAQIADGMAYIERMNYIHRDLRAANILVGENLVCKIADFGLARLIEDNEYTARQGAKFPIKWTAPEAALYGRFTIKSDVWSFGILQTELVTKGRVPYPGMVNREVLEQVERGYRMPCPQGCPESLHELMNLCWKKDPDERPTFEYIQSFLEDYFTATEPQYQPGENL

Turning to `Cc1cc(Oc2ccccc2F)ccc1-n1ncc(C(=O)c2cc3cc(OCC(F)F)c(NS(=O)(=O)c4cccc(Cl)c4)cc3[nH]2)c1N` [Example 5-1-417, N-[2-[5-amino-1-[4-(2-fluorophenoxy)-2-methylphenyl]pyrazole-4-carbonyl]-5-(2,2-difluoroethoxy)-1H-indol-6-yl]-3-chlorobenzenesulfonamide], the IC50 on human Src enzyme (setting [1]) came out at 240 nM; at human Yes1 enzyme (setting [1]) it was 5.8 nM; on human Lck enzyme (setting [1]), 130 nM.
For `Cc1cc2cc(C(=O)c3cnn(-c4c(C)cc(Oc5ccccc5)cc4F)c3N)[nH]c2cc1NS(C)(=O)=O` [Example 4-2-060, N-[2-[5-amino-1-(2-fluoro-6-methyl-4-phenoxyphenyl)pyrazole-4-carbonyl]-5-methyl-1H-indol-6-yl]methanesulfonamide] the same measures were 58 nM, 2 nM and 15 nM.
With `Cc1cc2cc(C(=O)c3cnn(-c4c(C)cc(Oc5cccc(Cl)c5)cc4F)c3N)[nH]c2cc1NS(C)(=O)=O` [Example 4-2-059, N-[2-[5-amino-1-[4-(3-chlorophenoxy)-2-fluoro-6-methylphenyl]pyrazole-4-carbonyl]-5-methyl-1H-indol-6-yl]methanesulfonamide], the results for the IC50 on human Src enzyme (setting [1]), on human Yes1 enzyme (setting [1]) and on human Lck enzyme (setting [1]) were 390 nM, 7.7 nM and 110 nM, respectively.
The matching figures for `COc1cc2cc(C(=O)c3cnn(-c4ccc(Oc5ccccc5F)cc4C)c3N)[nH]c2cc1NS(=O)(=O)CC(=O)N1CCOCC1` [Example 4-10-012, N-[2-[5-amino-1-[4-(2-fluorophenoxy)-2-methylphenyl]pyrazole-4-carbonyl]-5-methoxy-1H-indol-6-yl]-2-morpholin-4-yl-2-oxoethanesulfonamide]: 9.8 nM, 0.3 nM and 5.1 nM.
On to `CONS(=O)(=O)Nc1cc2[nH]c(C(=O)c3cnn(-c4ccc(Oc5ccccc5F)cc4C)c3N)cc2cc1F` [Example 4-5-009, [5-amino-1-[4-(2-fluorophenoxy)-2-methylphenyl]pyrazol-4-yl]-[5-fluoro-6-(methoxysulfamoylamino)-1H-indol-2-yl]methanone], for which the values for the IC50 at human Src enzyme (setting [1]), on human Yes1 enzyme (setting [1]) and at human Lck enzyme (setting [1]) were 35 nM, 0.68 nM and 12 nM, respectively.
Regarding `Cc1cc(Oc2ccccc2F)ccc1-n1ncc(C(=O)c2cc3cc(OC4CCN(C(C)C)CC4)c(Cl)cc3[nH]2)c1N` [Example 5-1-197, [5-amino-1-[4-(2-fluorophenoxy)-2-methylphenyl]pyrazol-4-yl]-[6-chloro-5-(1-propan-2-ylpiperidin-4-yl)oxy-1H-indol-2-yl] methanone], the IC50 at human Src enzyme was 7.7 nM; at human Yes1 enzyme, 0.87 nM; on human Lck enzyme, 8.3 nM.
As to `Cc1cc(Oc2ccccc2F)ccc1-n1ncc(C(=O)c2cc3cc(OCC(F)F)c(N4C(=O)[C@@H]5C[C@H](NC(=O)OCc6ccccc6)CN5C4=O)cc3[nH]2)c1N` [Example 5-1-273, Benzyl N-[(6S,7aS)-2-[2-[5-amino-1-[4-(2-fluorophenoxy)-2-methylphenyl]pyrazole-4-carbonyl]-5-(2,2-difluoroethoxy)-1H-indol-6-yl]-1,3-dioxo-5,6,7,7a-tetrahydropyrrolo[1,2-c]imidazol-6-yl]carbamate], the IC50 was found to be 33 nM at human Src enzyme, 1.8 nM at human Yes1 enzyme and 15 nM at human Lck enzyme.
With `Cc1cc(Oc2ccccc2F)ccc1-n1ncc(C(=O)c2cc3cc(OC(F)F)c(C4CCN(C(=O)CN)CC4)cc3[nH]2)c1N` [Example 4-18-002, 2-amino-1-[4-[2-[5-amino-1-[4-(2-fluorophenoxy)-2-methylphenyl]pyrazole-4-carbonyl]-5-(difluoromethoxy)-1H-indol-6-yl]piperidin-1-yl]ethanone], the values for the IC50 at human Src enzyme (setting [1]), on human Yes1 enzyme (setting [1]) and at human Lck enzyme (setting [1]) were 29 nM, 5.9 nM and 15 nM, respectively.

The record behind these values is patent publication US10479780B2, “Aminopyrazole derivatives” (Chugai Seiyaku Kabushiki Kaisha, priority 2015, dated 2019).
